Measured values as given in patent US9365522B2, “Pyrazole amide derivative” (AMGEN INC., priority 2015, dated 2016).

Molecular target: T1, ligand binding domain of human ROR gamma (Homo sapiens, UniProt P51449)
T1 construct: NM_001001523; expressed in transfected cells; host or cells: HEK293T
T1 sequence (P51449 247-497 isoform P51449-2): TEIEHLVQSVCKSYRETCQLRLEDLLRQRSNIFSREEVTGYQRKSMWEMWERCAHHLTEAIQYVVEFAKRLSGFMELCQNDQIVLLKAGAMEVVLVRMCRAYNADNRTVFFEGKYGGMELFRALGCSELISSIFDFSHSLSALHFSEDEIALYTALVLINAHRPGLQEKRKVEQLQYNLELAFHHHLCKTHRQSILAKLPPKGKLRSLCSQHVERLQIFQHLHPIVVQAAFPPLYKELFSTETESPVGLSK
Test: ROR gamma reporter gene assay (GAL4-RORγ LBD luciferase, Dual-Glo)
Assay type: cell-based
Conditions: HEK293T cells transfected with pM-ROR gamma, 8 concentrations 3.5 nM to 10.5 μM, 24 h incubation; read-out: result (pIC50, inhibition of RORγ transcriptional activity) (converted)
How it was run: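 First, HEK293T cells are transfected with the GAL4–RORγ LBD construct, a 5×UAS luciferase reporter and a constitutive renilla control. Next, test compounds are added over eight concentrations (3.5 nM to 10.5 μM). After 24 h at 37 °C, Dual-Glo luminescence is measured and pIC50 fitted.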

## COc1cccc(Cl)c1C(=O)CN(CC(C)(C)C)C(=O)c1cnn([C@H]2CC[C@](C)(C(=O)O)CC2)c1C(F)(F)F [Example 253, trans-4-(4-((2-(2-chloro-6-methoxyphenyl)-2-oxoethyl)-(2,2-dimethylpropyl)carbamoyl)-5-(trifluoromethyl)pyrazol-1-yl)-1-methylcyclohexane-1-carboxylic acid]
  IC50: 45700 pM

## COc1cccc(Cl)c1C(=O)CN(C(=O)c1cnn([C@H]2CC[C@](C)(C(=O)O)CC2)c1C(F)(F)F)C1CCC(C)(C)CC1 [Example 255, trans-4-(4-((2-(2-chloro-6-methoxyphenyl)-2-oxoethyl)-(4,4-dimethylcyclohexyl)carbamoyl)-5-(trifluoromethyl)pyrazol-1-yl)-1-methylcyclohexane-1-carboxylic acid]
  IC50: 55000 pM

## CC1(C)CC(CN(CC(=O)c2c(Cl)cc(Cl)cc2Cl)C(=O)c2cnn(C34CCC(C(=O)O)(CC3)CC4)c2C(F)(F)F)C1 [Example 256, 4-(4-((3,3-dimethylcyclobutyl)methyl-(2-oxo-2-(2,4,6-trichlorophenyl)ethyl)carbamoyl)-5-(trifluoromethyl)pyrazol-1-yl)bicyclo[2.2.2]octane-1-carboxylic acid]
  IC50: 6030 pM

## COc1cccc(Cl)c1C(=O)CN(CC1CC(C)(C)C1)C(=O)c1cnn(C23CCC(C(=O)O)(CC2)CC3)c1C(F)(F)F [Example 257, 4-(4-((2-(2-chloro-6-methoxyphenyl)-2-oxoethyl)-((3,3-dimethylcyclobutyl)methyl)carbamoyl)-5-(trifluoromethyl)pyrazol-1-yl)bicyclo[2.2.2]octane-1-carboxylic acid]
  IC50: 20000 pM

## CC1(C)CC(CN(CC(=O)c2c(Cl)cccc2C(F)(F)F)C(=O)c2cnn(C34CCC(C(=O)O)(CC3)CC4)c2C(F)(F)F)C1 [Example 258, 4-(4-((2-(2-chloro-6-(trifluoromethyl)phenyl)-2-oxoethyl)-((3,3-dimethylcyclobutyl)methyl)carbamoyl)-5-(trifluoromethyl)pyrazol-1-yl)bicyclo[2.2.2]octane-1-carboxylic acid]
  IC50: 6610 pM

## COc1cccc(Cl)c1C(=O)CN(CC1CCC(C)(C)CC1)C(=O)c1cnn([C@H]2CC[C@](C)(C(=O)O)CC2)c1C(F)(F)F [Example 259, trans-4-(4-((2-(2-chloro-6-methoxyphenyl)-2-oxoethyl)-((4,4-dimethylcyclohexyl)methyl)carbamoyl)-5-(trifluoromethyl)pyrazol-1-yl)-1-methylcyclohexane-1-carboxylic acid]
  IC50: 117000 pM

## CC12CCC(CN(CC(=O)c3c(Cl)cc(Cl)cc3Cl)C(=O)c3cnn([C@H]4CC[C@](C)(C(=O)O)CC4)c3C(F)(F)F)(CC1)O2 [Example 260, trans-4-(4-((1-methyl-7-oxabicyclo[2.2.1]heptan-4-yl)methyl-(2-oxo-2-(2,4,6-trichlorophenyl)ethyl)carbamoyl)-5-(trifluoromethyl)pyrazol-1-yl)-1-methylcyclohexane-1-carboxylic acid]
  IC50: 6030 pM

## Cc1cc(Cl)c(C(=O)CN(CC23CCC(C)(CC2)O3)C(=O)c2cnn(C34CCC(C(=O)O)(CC3)CC4)c2C(F)(F)F)c(Cl)c1 [Example 261, 4-(4-((2-(2,6-dichloro-4-methylphenyl)-2-oxoethyl)-((1-methyl-7-oxabicyclo[2.2.1]heptan-4-yl)methyl)carbamoyl)-5-(trifluoromethyl)pyrazol-1-yl)bicyclo[2.2.2]octane-1-carboxylic acid]
  IC50: 4570 pM

## O=C(CN(CC12CCC(CC1)O2)C(=O)c1cnn([C@H]2CC[C@H](C(=O)O)CC2)c1C(F)(F)F)c1c(Cl)cncc1Cl [Example 262, trans-4-(4-((2-(3,5-dichloropyridin-4-yl)-2-oxoethyl)-(7-oxabicyclo[2.2.1]heptan-4-ylmethyl)carbamoyl)-5-(trifluoromethyl)pyrazol-1-yl)cyclohexane-1-carboxylic acid]
  IC50: 40700 pM

## CC(C)(C)CN(CC(=O)c1c(Cl)cccc1C(F)(F)F)C(=O)c1cnn(C23CCC(C(=O)O)(CC2)CC3)c1C(F)(F)F [Example 263, 4-(4-((2-(2-chloro-6-(trifluoromethyl)phenyl)-2-oxoethyl)-(2,2-dimethylpropyl)carbamoyl)-5-(trifluoromethyl)pyrazol-1-yl)bicyclo[2.2.2]octane-1-carboxylic acid]
  IC50: 5890 pM

## CC1(C)[C@@H]2C[C@H](N(CC(=O)c3c(Cl)cncc3Cl)C(=O)c3cnn([C@H]4CC[C@H](C(=O)O)CC4)c3C(F)(F)F)C[C@@H]21 [Example 264, trans-4-(4-((2-(3,5-dichloropyridin-4-yl)-2-oxoethyl)-((1R,3r,5S)-6,6-dimethyl-3-bicyclo[3.1.0]hexanyl)carbamoyl)-5-(trifluoromethyl)pyrazol-1-yl)cyclohexane-1-carboxylic acid]
  IC50: 8130 pM

## CC(C)(C)CN(CC(=O)c1c(Cl)cccc1C(F)(F)F)C(=O)c1cnn([C@H]2CC[C@](C)(C(=O)O)CC2)c1C(F)(F)F [Example 265]
  IC50: 18200 pM

## CC1(C)CC(CN(CC(=O)c2c(Cl)cc(F)cc2Cl)C(=O)c2cnn(C34CCC(C(=O)O)(CC3)CC4)c2C(F)(F)F)C1 [Example 266, 4-(4-((2-(2,6-dichloro-4-fluorophenyl)-2-oxoethyl)-((3,3-dimethylcyclobutyl)methyl)carbamoyl)-5-(trifluoromethyl)pyrazol-1-yl)bicyclo[2.2.2]octane-1-carboxyIic acid]
  IC50: 5370 pM

## CC12CCC(CN(CC(=O)c3c(Cl)cncc3Cl)C(=O)c3cnn([C@H]4CC[C@](C)(C(=O)O)CC4)c3C(F)(F)F)(CC1)C2 [Example 267, trans-4-(4-((2-(3,5-dichloropyridin-4-yl)-2-oxoethyl)-((1-methyl-4-bicyclo[2.2.1]heptanyl)methyl)carbamoyl)-5-(trifluoromethyl)pyrazol-1-yl)-1-methylcyclohexane-1-carboxylic acid]
  IC50: 13500 pM

## Cc1cc(Cl)cc(C)c1C(=O)CN(Cc1cc(F)cc(F)c1)C(=O)c1cnn([C@H]2CC[C@H](C(=O)O)CC2)c1C(F)(F)F [Example 268, trans-4-(4-((2-(4-chloro-2,6-dimethylphenyl)-2-oxoethyl)-((3,5-difluorophenyl)methyl)carbamoyl)-5-(trifluoromethyl)pyrazol-1-yl)cyclohexane-1-carboxylic acid]
  IC50: 107000 pM

## Cc1cc(C)c(C(=O)CN(Cc2cc(F)cc(F)c2)C(=O)c2cnn([C@H]3CC[C@H](C(=O)O)CC3)c2C(F)(F)F)c(Cl)c1 [Example 269, trans-4-(4-((2-(2-chloro-4,6-dimethylphenyl)-2-oxoethyl)-((3,5-difluorophenyl)methyl)carbamoyl)-5-(trifluoromethyl)pyrazol-1-yl)cyclohexane-1-carboxylic acid]
  IC50: 8130 pM

## C[C@]1(C(=O)O)CC[C@H](n2ncc(C(=O)N(CC(=O)c3c(Cl)cccc3C(F)(F)F)CC3(F)CCCC3)c2C(F)(F)F)CC1 [Example 270, trans-4-(4-((2-(2-chloro-6-(trifluoromethyl)phenyl)-2-oxoethyl)-((1-fluorocyclopentyl)methyl)carbamoyl)-5-(trifluoromethyl)pyrazol-1-yl)-1-methylcyclohexane-1-carboxylic acid]
  IC50: 16200 pM

## O=C(CN(CC1(F)CCCC1)C(=O)c1cnn(C23CCC(C(=O)O)(CC2)CC3)c1C(F)(F)F)c1c(Cl)cc(F)cc1Cl [Example 271, 4-(4-((2-(2,6-dichloro-4-fluorophenyl)-2-oxoethyl)-((1-fluorocyclopentyl)methyl)carbamoyl)-5-(trifluoromethyl)pyrazol-1-yl)bicyclo[2.2.2]octane-1-carboxylic acid]
  IC50: 5130 pM

## C[C@]1(C(=O)O)CC[C@H](n2ncc(C(=O)N(CC(=O)c3c(Cl)cncc3Cl)CC3(F)CCCC3)c2C(F)(F)F)CC1 [Example 272, trans-4-(4-((2-(3,5-dichloropyridin-4-yl)-2-oxoethyl)-((1-fluorocyclopentyl)methyl)carbamoyl)-5-(trifluoromethyl)pyrazol-1-yl)-1-methylcyclohexane-1-carboxylic acid]
  IC50: 11200 pM

## CC1(C)CCC(N(CC(=O)c2c(Cl)cc(F)cc2Cl)C(=O)c2cnn(C34CCC(C(=O)O)(CC3)CC4)c2C(F)F)CC1 [Example 273, 4-(4-((2-(2,6-dichloro-4-fluorophenyl)-2-oxoethyl)-(4,4-dimethylcyclohexyl)carbamoyl)-5-(difluoromethyl)pyrazol-1-yl)bicyclo[2.2.2]octane-1-carboxylic acid]
  IC50: 14100 pM

## CC12CCC(CN(CC(=O)c3c(Cl)cc(F)cc3Cl)C(=O)c3cnn([C@H]4CC[C@](C)(C(=O)O)CC4)c3C(F)(F)F)(CC1)C2 [Example 274, trans-4-(4-((2-(2,6-dichloro-4-fluorophenyl)-2-oxoethyl)-((1-methyl-4-bicyclo[2.2.1]heptanyl)methyl)carbamoyl)-5-(trifluoromethyl)pyrazol-1-yl)-1-methylcyclohexane-1-carboxylic acid]
  IC50: 8320 pM

## CC12CCC(CN(CC(=O)c3c(Cl)cc(Cl)cc3Cl)C(=O)c3cnn([C@H]4CC[C@](C)(C(=O)O)CC4)c3C(F)(F)F)(CC1)C2 [Example 275, trans-4-(4-((1-methyl-4-bicyclo[2.2.1]heptanyl)methyl-(2-oxo-2-(2,4,6-trichlorophenyl)ethyl)carbamoyl)-5-(trifluoromethyl)pyrazol-1-yl)-1-methylcyclohexane-1-carboxylic acid]
  IC50: < 3470 pM
